Laboratory results taken from patent US11214803B2, “Modulators of YAP1 expression” (Ionis Pharmaceuticals, Inc., priority 2019, dated 2022).
Strand notation (5' to 3'): a small letter for the sugar, then the base; units joined by * are phosphorothioate-linked, units joined directly phosphodiester-linked; [ ] holds rarer units or linkages, { } end groups; capitals alone tell only the bases. k = constrained ethyl (cEt); [5mC] = 5-methylcytosine; d = 2'-deoxy (DNA)

How the values were obtained:
Format in all cases: cell-based
Yap1 mRNA [1] = test: Dose-dependent inhibition of human Yap1 in A-431 cells (Example 6, 5,000 cells per well, RTS4814); conditions: for Yap1 mRNA, % UTC: 48 hours; for % UTC 148 nM / % UTC 444 nM / % UTC 1333 nM / % UTC 4000 nM: approximately 48 hours
Protocol: Modified oligonucleotides described in the studies above were tested at various doses in A-431 cells. Cultured A-431 cells at a density of 5,000 cells per well were treated using free uptake with modified oligonucleotides diluted to concentrations described in the tables below. After approximately 48 hours, Yap1 mRNA levels were measured as previously described using the Human Yap1 primer-probe set RTS4814. Yap1 mRNA levels were normalized to total RNA content, as measured by RIBOGREEN®. Results are presented in the tables below as percent control of the amount of Yap1 mRNA relative to untreated control cells (% UTC). IC50s were calculated using a linear regression on a log/linear plot of the data in excel.

Yap1 mRNA [2] = test: Antisense inhibition of human Yap1 in A-431 cells by cEt gapmers, single dose (Example 4, RTS4814)
How it was run: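 A-431 cells took up 3-10-3 cEt gapmers (16-mer, full phosphorothioate, 5-methylcytosines) by free uptake at 2,000 nM for about 48 h. Yap1 mRNA was quantified by qRT-PCR, normalized to total RNA (RIBOGREEN), and reported as % of untreated control.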

Yap1 mRNA [3] = test: Dose-dependent inhibition of human Yap1 in A-431 cells (Example 8, 10,000 cells per well, RTS4814); conditions: A-431 cells; for IC50: Yap1 mRNA
How it was run: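 A-431 cells (10,000/well) dosed with modified oligonucleotides by free uptake; Yap1 mRNA measured ~48 h later with primer-probe set RTS4814, normalized to total RNA (RIBOGREEN). Values are % of untreated control; IC50 from linear regression on log/linear plot.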

Yap1 mRNA [4] = test: Antisense inhibition of human Yap1 in SNU-449 cells by modified oligonucleotides, single dose (Example 5, RTS36584); conditions: Yap1 mRNA, percent of untreated control; modified oligonucleotides targeting SEQ ID NO: 1 and 2; Table 47
How it was run: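 Each modified oligonucleotide is applied by free uptake to SNU-449 cultures at 2,000 nM, and total RNA is harvested around 48 h later. Yap1 transcript, quantified with the RTS36584 set and corrected for RIBOGREEN RNA content, is given as % UTC. Asterisks mark sequences overlapping the amplicon.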

[5] = Table 54, A-431 cells, Yap1 mRNA, linear regression on a log/linear plot
[6] = Table 54, A-431 cells, free uptake, 148 nM, RTS4814
[7] = Table 54, A-431 cells, free uptake, 444 nM, RTS4814
[8] = Table 54, A-431 cells, free uptake, 1333 nM, RTS4814
[9] = Table 54, A-431 cells, free uptake, 4000 nM, RTS4814
[10] = Yap1 mRNA remaining as percent of untreated control, 3-10-3 cEt gapmers, A-431 cells, Table 36
[11] = Yap1 mRNA remaining as percent of untreated control, 3-10-3 cEt gapmers, A-431 cells, Table 37

Row | Substance | YAP1 (% UTC) (Yap1 mRNA [2]; [10]) | % UTC (Yap1 mRNA) (Yap1 mRNA [3]; 31.3 nM) [% UTC] | % UTC (Yap1 mRNA) (Yap1 mRNA [3]; 125.0 nM) [% UTC] | % UTC (Yap1 mRNA) (Yap1 mRNA [3]; 500.0 nM) [% UTC] | % UTC (Yap1 mRNA) (Yap1 mRNA [3]; 2000.00 nM) [% UTC] | IC50 (Yap1 mRNA [3]) [nM] | other results
1 | 716500 (antisense kA*kA*k[5mC]*dT*dT*d[5mC]*dT*dT*dA*d[5mC]*dT*dT*d[5mC]*k[5mC]*kA*kA) [compound 716500] |  |  |  |  |  |  | Yap1 mRNA, % UTC (Yap1 mRNA [1]; Table 55, 148 nM, free uptake, A-431 cells 5,000 cells per well, RTS4814): 88 % UTC; Yap1 mRNA, % UTC (Yap1 mRNA [1]; Table 55, 444 nM, free uptake, A-431 cells 5,000 cells per well, RTS4814): 96 % UTC; Yap1 mRNA, % UTC (Yap1 mRNA [1]; Table 55, 1333 nM, free uptake, A-431 cells 5,000 cells per well, RTS4814): 79 % UTC; Yap1 mRNA, % UTC (Yap1 mRNA [1]; Table 55, 4000 nM, free uptake, A-431 cells 5,000 cells per well, RTS4814): 46 % UTC; IC50 (Yap1 mRNA [1]; Table 55, A-431 cells 5,000 cells per well, free uptake, RTS4814): > 4000 nM
2 | 716577 (antisense kT*k[5mC]*kT*dG*dT*d[5mC]*dA*dG*dT*dT*dA*dT*d[5mC]*k[5mC]*kT*kA) [compound 716577] |  |  |  |  |  |  | IC50 (Yap1 mRNA [1]; [5]): > 4000 nM; % UTC 148 nM (Yap1 mRNA [1]; [6]): 109 % UTC; % UTC 444 nM (Yap1 mRNA [1]; [7]): 93 % UTC; % UTC 1333 nM (Yap1 mRNA [1]; [8]): 79 % UTC; % UTC 4000 nM (Yap1 mRNA [1]; [9]): 60 % UTC
3 | 716469 (antisense kG*kT*kT*dT*dG*d[5mC]*dT*d[5mC]*d[5mC]*dT*dT*dT*d[5mC]*k[5mC]*kA*kA) [compound 716469] |  |  |  |  |  |  | IC50 (Yap1 mRNA [1]; [5]): > 4000 nM; % UTC 148 nM (Yap1 mRNA [1]; [6]): 71 % UTC; % UTC 444 nM (Yap1 mRNA [1]; [7]): 78 % UTC; % UTC 1333 nM (Yap1 mRNA [1]; [8]): 89 % UTC; % UTC 4000 nM (Yap1 mRNA [1]; [9]): 39 % UTC
4 | 1074454 (kT*kG*kT*dG*dA*d[5mC]*dT*dA*dA*dT*dG*dA*dT*kA*kG*k[5mC]; antisense) [compound 1074454] | 1 | 39 | 9 | 3 | 3 | < 20 | 
5 | 1075766 (kG*kG*kA*dG*dA*dA*d[5mC]*dA*d[5mC]*dA*dA*dG*dA*kG*kG*k[5mC]; antisense) [compound 1075766] | 5 | 56 | 21 | 11 | 8 | < 20 | 
6 | 1076023 (kA*kT*kA*dA*dT*dT*dA*dG*dA*dT*dG*d[5mC]*dT*kG*kA*k[5mC]; antisense) [compound 1076023] |  | 60 | 18 | 5 | 3 | < 20 | YAP1 (% UTC) (Yap1 mRNA [2]; [11]): 4 % UTC
7 | 1074678 (antisense kT*kA*kA*dT*d[5mC]*dT*dG*dT*dG*dG*d[5mC]*dT*dA*k[5mC]*kT*kG) [compound 1074678] | 7 | 73 | 37 | 16 | 10 | 100 | 
8 | 1076534 (kA*k[5mC]*kT*dA*dT*dA*dA*dA*dG*d[5mC]*dA*dA*dT*kG*k[5mC]*kG; antisense) [compound 1076534] | 4 | 88 | 48 | 20 | 10 | 200 | 
9 | 1076439 (k[5mC]*kT*kT*dA*dT*dA*dT*dG*dG*dT*dT*dT*dT*kG*kT*kG) [compound 1076439] |  | 48 | 13 | 6 | 5 | < 20 | YAP1 (% UTC) (Yap1 mRNA [2]; [11]): 4 % UTC
10 | 1076119 (kG*kT*kT*dA*dA*dA*dT*dA*dT*dG*dA*dA*dT*kT*kG*kG; antisense) [compound 1076119] |  | 82 | 35 | 12 | 6 | 100 | YAP1 (% UTC) (Yap1 mRNA [2]; [11]): 7 % UTC
11 | 1075990 (k[5mC]*kG*kT*dT*dA*dT*dT*dA*dT*dG*d[5mC]*dA*dG*k[5mC]*kA*kA; antisense) [compound 1075990] | 1 | 28 | 6 | 3 | 3 | < 20 | 
12 | 1076481 (antisense k[5mC]*kT*kA*dA*dG*dT*dA*dA*dG*dG*dT*dT*dT*k[5mC]*k[5mC]*k[5mC]) [Compound 1076481] |  |  |  |  |  |  | YAP1 (% UT) (Yap1 mRNA [4]): ^mCksTksAksAdsGdsTdsAdsAdsGdsGds13 % UT; YAP1 (% UTC) (Yap1 mRNA [2]; Table 15, A-431 cells, 5,000 cells per well, free uptake, 2,000 nM, approximately 48 hours, RTS4814, normalized to RIBOGREEN, Yap1 mRNA relative to untreated control, * = targets amplicon region of primer probe set): 1 % UTC
13 | 1076406 (antisense kA*kT*kT*dA*dT*dT*dT*dA*dA*dG*dA*d[5mC]*d[5mC]*kT*kG*kG) [compound 1076406] | 4 | 51 | 20 | 9 | 7 | < 20 | 
14 | 1074230 (antisense kA*kA*kG*dA*dA*dG*dA*d[5mC]*dT*dG*dT*d[5mC]*dG*kA*kA*kG) [compound 1074230] | 4 | 62 | 30 | 12 | 8 | 50 | 
15 | 1074464 (kT*kT*kA*dG*dA*dG*dT*dA*dT*dG*dT*dG*dG*k[5mC]*kA*kA) [Compound 1074464] |  |  |  |  |  |  | YAP1 (% UT) (Yap1 mRNA [4]): 5 % UT; YAP1 (% UTC) (Yap1 mRNA [2]; Table 14, A-431 cells, 5,000 cells per well, free uptake, 2,000 nM, approximately 48 hours, RTS4814, normalized to RIBOGREEN, Yap1 mRNA relative to untreated control, * = targets amplicon region of primer probe set): 2 % UTC
16 | 1074755 (CACTTTTACATTAGGA; antisense; chemistry not fully specified) [Compound 1074755] |  |  |  |  |  |  | YAP1 (% UT) (Yap1 mRNA [4]): 23 % UT; YAP1 (% UTC) (Yap1 mRNA [2]; Table 17, A-431 cells, 5,000 cells per well, free uptake, 2,000 nM, approximately 48 hours, RTS4814, normalized to RIBOGREEN, Yap1 mRNA relative to untreated control cells): 3 % UTC
17 | 1074754 (k[5mC]*kT*kT*dT*dT*dA*d[5mC]*dA*dT*dT*dA*dG*dG*kA*kA*k[5mC]) [Compound 1074754] |  |  |  |  |  |  | YAP1 (% UT) (Yap1 mRNA [4]): 69 % UT; YAP1 (% UTC) (Yap1 mRNA [2]; Table 16, A-431 cells, 5,000 cells per well, free uptake, 2,000 nM, approximately 48 hours, RTS4814, normalized to RIBOGREEN, Yap1 mRNA relative to untreated control cells): 11 % UTC
18 | 1074679 (antisense kT*k[5mC]*kT*dT*dA*dA*dT*d[5mC]*dT*dG*dT*dG*dG*k[5mC]*kT*kA) [compound 1074679] |  | 52 | 16 | 6 | 5 | < 20 | YAP1 (% UTC) (Yap1 mRNA [2]; [11]): 5 % UTC
19 | 1076471 (k[5mC]*kA*kT*dT*dA*dG*dA*d[5mC]*dT*dA*dG*dG*d[5mC]*kT*kT*kT; antisense) [compound 1076471] |  | 64 | 29 | 9 | 5 | 50 | YAP1 (% UTC) (Yap1 mRNA [2]; [11]): 5 % UTC
20 | 1074486 (kA*kT*kT*d[5mC]*dA*d[5mC]*dT*dA*dA*dT*dA*dT*dG*kG*kT*k[5mC]; antisense) [compound 1074486] | 4 | 55 | 26 | 10 | 6 | < 20 | 
21 | 1074487 (kA*kG*kA*dT*dT*d[5mC]*dA*d[5mC]*dT*dA*dA*dT*dA*kT*kG*kG; antisense) [compound 1074487] |  | 73 | 28 | 11 | 6 | 100 | YAP1 (% UTC) (Yap1 mRNA [2]; [11]): 7 % UTC
22 | 1076022 (kT*kA*kA*dT*dT*dA*dG*dA*dT*dG*d[5mC]*dT*dG*kA*k[5mC]*kA; antisense) [compound 1076022] | 2 | 63 | 28 | 8 | 5 | 40 | 
